Measured values published in the NIST ThermoML archive (doi:10.1016/j.fluid.2018.05.032).
Several values for one entry are separate records, joined by “and”; a condition that tells them apart may be missing. Identical values can stand only once.

Experiments:
[1] = molar heat capacity at constant pressure; details: 101.33 kPa, DSC
[2] = for vapor or sublimation pressure: Closed cell (Static) method
[3] = Molar enthalpy of transition or fusion; details: Crystal; DSC

CC(C)NCCO [2-isopropylaminoethanol]
Details	Normal melting temperature [°C]	molar heat capacity at constant pressure [J/K/mol]	vapor or sublimation pressure
[1], 265 K, Metastable liquid	–	240.4	–
[1], 270 K, Metastable liquid	–	243.1	–
[1], 275 K, Metastable liquid	–	245.8	–
[1], 280 K, Metastable liquid	–	248.5	–
[1], 285 K, Metastable liquid	–	251	–
[1], 290 K, Liquid	–	253.8	–
[1], 295 K, Liquid	–	256.9	–
[1], 300 K, Liquid	–	260.1	–
[1], 305 K, Liquid	–	263.3	–
[1], 310 K, Liquid	–	266.6	–
[1], 315 K, Liquid	–	270.1	–
[1], 320 K, Liquid	–	273.5	–
[1], 325 K, Liquid	–	277.2	–
[1], 330 K, Liquid	–	280.7	–
[1], 335 K, Liquid	–	284.3	–
[1], 340 K, Liquid	–	287.7	–
[1], 345 K, Liquid	–	291.1	–
[1], 350 K, Liquid	–	294.9	–
[1], 355 K, Liquid	–	298.5	–
[2], 248.13 K, Metastable liquid	–	–	0.000252 kPa and 0.000251 kPa
[2], 253.14 K, Metastable liquid	–	–	0.000472 kPa
[2], 253.15 K, Crystal	–	–	0.000258 kPa and 0.000257 kPa and 0.000254 kPa
[2], 253.15 K, Metastable liquid	–	–	0.000471 kPa and 0.000472 kPa
[2], 258.14 K, Crystal	–	–	0.000482 kPa and 0.00048 kPa and 0.000479 kPa
[2], 258.15 K, Metastable liquid	–	–	0.000864 kPa
[2], 263.15 K, Crystal	–	–	0.000926 kPa and 0.000923 kPa and 0.000921 kPa
[2], 263.15 K, Metastable liquid	–	–	0.001546 kPa and 0.001544 kPa
[2], 268.14 K, Crystal	–	–	0.00171 kPa and 0.001709 kPa
[2], 268.14 K, Metastable liquid	–	–	0.002688 kPa
[2], 273.14 K, Crystal	–	–	0.00318 kPa and 0.003182 kPa and 0.003174 kPa
[2], 273.14 K, Metastable liquid	–	–	0.004591 kPa
[2], 273.15 K, Metastable liquid	–	–	0.004589 kPa and 0.00459 kPa
[2], 278.14 K, Crystal	–	–	0.005875 kPa and 0.005872 kPa and 0.00587 kPa
[2], 278.14 K, Metastable liquid	–	–	0.007669 kPa and 0.007676 kPa and 0.007665 kPa
[2], 283.14 K, Crystal	–	–	0.01065 kPa and 0.01066 kPa and 0.01068 kPa
[2], 283.14 K, Metastable liquid	–	–	0.01257 kPa
[2], 288.14 K, Crystal	–	–	0.01909 kPa and 0.01911 kPa
[2], 288.15 K, Crystal	–	–	0.0191 kPa
[2], 288.15 K, Metastable liquid	–	–	0.0202 kPa
[2], 293.14 K, Liquid	–	–	0.03179 kPa
[2], 298.11 K, Liquid	–	–	0.04899 kPa
[2], 298.12 K, Liquid	–	–	0.0492 kPa
[2], 298.14 K, Liquid	–	–	0.04914 kPa and 0.04915 kPa
[2], 298.17 K, Liquid	–	–	0.04928 kPa
[2], 303.04 K, Liquid	–	–	0.07439 kPa and 0.0744 kPa and 0.07435 kPa
[2], 303.14 K, Liquid	–	–	0.0747 kPa and 0.07469 kPa and 0.07473 kPa
[2], 308.01 K, Liquid	–	–	0.1111 kPa
[2], 308.03 K, Liquid	–	–	0.1112 kPa
[2], 308.04 K, Liquid	–	–	0.1112 kPa
[2], 308.14 K, Liquid	–	–	0.1119 kPa
[2], 308.15 K, Liquid	–	–	0.1119 kPa and 0.1118 kPa
[2], 313 K, Liquid	–	–	0.164 kPa
[2], 313.01 K, Liquid	–	–	0.1642 kPa
[2], 317.9 K, Liquid	–	–	0.2372 kPa and 0.2373 kPa
[2], 322.97 K, Liquid	–	–	0.3405 kPa
[2], 322.98 K, Liquid	–	–	0.3407 kPa
[2], 327.95 K, Liquid	–	–	0.4814 kPa and 0.4815 kPa
[2], 332.99 K, Liquid	–	–	0.6731 kPa and 0.6728 kPa
[2], 337.93 K, Liquid	–	–	0.9221 kPa and 0.9223 kPa
[2], 342.94 K, Liquid	–	–	1.257 kPa
[2], Crystal, DTA	16	–	–

Details	Molar enthalpy of transition or fusion [kJ/mol]
[3]	19

CCN(CC)CCO [(diethylamino)ethanol]
Liquid
Details	molar heat capacity at constant pressure [J/K/mol]	vapor or sublimation pressure
[1], 265 K	260.6	–
[1], 270 K	263.9	–
[1], 275 K	267.1	–
[1], 280 K	270	–
[1], 285 K	272.8	–
[1], 290 K	275.6	–
[1], 295 K	278.7	–
[1], 300 K	281.8	–
[1], 305 K	284.7	–
[1], 310 K	287.6	–
[1], 315 K	290.5	–
[1], 320 K	293.2	–
[1], 325 K	295.8	–
[1], 330 K	298.2	–
[1], 335 K	300.4	–
[1], 340 K	302.7	–
[1], 345 K	305.1	–
[1], 350 K	307.7	–
[1], 355 K	309.9	–
[2], 273.64 K	–	0.03488 kPa and 0.0349 kPa and 0.03489 kPa
[2], 278.14 K	–	0.05131 kPa and 0.05133 kPa
[2], 278.15 K	–	0.05134 kPa
[2], 283.14 K	–	0.07733 kPa
[2], 283.15 K	–	0.07737 kPa
[2], 288.15 K	–	0.1146 kPa
[2], 293.14 K	–	0.167 kPa and 0.1669 kPa
[2], 298.15 K	–	0.2393 kPa
[2], 303.14 K	–	0.3378 kPa and 0.3379 kPa
[2], 303.15 K	–	0.338 kPa
[2], 308.15 K	–	0.4708 kPa and 0.4709 kPa
